According to paper PMC8950173 (Pharmaceuticals, 2022):

Tests used:
human recombinant HDAC1 = target: T1, human recombinant HDAC1 (Homo sapiens, UniProt Q13547); assay: Inhibition assay HDAC1 (fluorogenic substrate ZMAL); type: biochemical; conditions: 60 min preincubation at 25 °C
T1 construct: purchased BPS Bioscience Inc. 50051
Experimental: (§1) In vitro inhibitory activities against HDAC1−3 and HDAC6 were measured as previously published with minor modifications. […] Subsequently, 50 µL trypsin solution (0.4 mg/mL trypsin in buffer: 50 mM Tris−HCl, pH = 8.0, 100 mM NaCl) was added, followed by additional 30 min of incubation at 37 °C. […] All compounds were tested at least twice in duplicates.

human recombinant HDAC6 = target: T2, human recombinant HDAC6 (Homo sapiens, UniProt Q9UBN7); assay: Inhibition assay HDAC6 (fluorogenic substrate ZMAL); type: biochemical; conditions: from IC50 values
T2 construct: purchased BPS Bioscience Inc. 50006
T2 sequence (Q9UBN7 1-1215): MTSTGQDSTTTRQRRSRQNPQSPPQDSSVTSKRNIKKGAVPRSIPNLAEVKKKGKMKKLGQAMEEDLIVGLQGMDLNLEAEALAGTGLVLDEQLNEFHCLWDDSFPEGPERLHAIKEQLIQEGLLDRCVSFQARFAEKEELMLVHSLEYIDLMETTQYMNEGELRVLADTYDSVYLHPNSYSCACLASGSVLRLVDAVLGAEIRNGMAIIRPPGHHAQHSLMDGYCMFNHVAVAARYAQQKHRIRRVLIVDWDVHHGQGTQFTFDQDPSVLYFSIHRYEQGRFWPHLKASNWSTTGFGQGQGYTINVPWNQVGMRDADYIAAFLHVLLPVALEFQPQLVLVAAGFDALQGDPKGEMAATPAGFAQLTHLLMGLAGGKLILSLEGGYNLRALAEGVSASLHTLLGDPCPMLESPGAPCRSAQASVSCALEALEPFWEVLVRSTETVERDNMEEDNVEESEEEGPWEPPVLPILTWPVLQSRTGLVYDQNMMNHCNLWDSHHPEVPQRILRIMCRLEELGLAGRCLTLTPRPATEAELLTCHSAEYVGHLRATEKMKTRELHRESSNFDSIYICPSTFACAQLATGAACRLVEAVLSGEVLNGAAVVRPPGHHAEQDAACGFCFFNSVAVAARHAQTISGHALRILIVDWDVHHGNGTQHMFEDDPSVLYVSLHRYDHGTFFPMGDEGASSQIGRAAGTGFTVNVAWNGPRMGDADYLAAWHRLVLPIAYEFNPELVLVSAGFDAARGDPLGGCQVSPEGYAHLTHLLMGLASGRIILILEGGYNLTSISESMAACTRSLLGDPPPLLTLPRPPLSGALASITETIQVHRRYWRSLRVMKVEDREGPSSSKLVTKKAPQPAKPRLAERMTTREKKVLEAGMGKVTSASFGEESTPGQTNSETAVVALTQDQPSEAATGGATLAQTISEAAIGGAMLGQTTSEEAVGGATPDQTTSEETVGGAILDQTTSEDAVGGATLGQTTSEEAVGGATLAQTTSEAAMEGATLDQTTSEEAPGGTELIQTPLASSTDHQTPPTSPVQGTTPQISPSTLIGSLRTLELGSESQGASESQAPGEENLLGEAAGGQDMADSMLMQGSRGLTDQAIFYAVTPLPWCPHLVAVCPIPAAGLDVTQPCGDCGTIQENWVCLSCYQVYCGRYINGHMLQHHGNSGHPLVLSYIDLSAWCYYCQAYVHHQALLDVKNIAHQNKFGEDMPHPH
Experimental: as §1

[1] = Dynamic PET/MR scan, brain uptake, baseline; type: in vivo
Experimental: For the time of the experiments, female CD-1 mice (n = 6; 8–15 weeks; 29–43 g) were kept in a dedicated climatic chamber with free access to water and food under a 12:12 h dark:light cycle at a constant temperature (24 °C). The animals were anaesthetized (Anaesthesia Unit U-410, agntho’s, Lidingö, Sweden) with isoflurane (2.0%, 300 mL/min) delivered in a 60% oxygen/40% air mixture (Gas Blender 100 Series, MCQ instruments, Rome, Italy) and their body temperature maintained at 37 °C with a thermal bed system. For baseline studies [^18F]BA3 was injected into the tail vein (n = 2; 6.0 ± 0.6 MBq in 150 µL isotonic saline; 9.2 ± 0.7 nmol/kg; Am: 21 GBq/μmol, EOS) followed by a dynamic 60 min PET/MR scan (Mediso nanoScan®, Budapest, Hungary). Permeability-glycoprotein efflux transporter studies consisted in pre-treatment via i.v. injection of cyclosporine A (50 mg/kg in NaCl/DMSO/kolliphor, 7:1:2, v/v; n = 2) or of vehicle (NaCl/DMSO/kolliphor, 7:1:2, v/v; n = 2) 30 min prior to [^18F]BA3 (6.0 ± 0.9 MBq; 4.9 ± 0.7 nmol/kg; Am: 32–37 GBq/μmol, EOS). Each PET image was corrected for random coincidences, dead time, scatter and attenuation (AC), based on a whole body (WB) MR scan. The reconstruction parameters for the list mode data were 3D-ordered subset expectation maximization (OSEM), 4 iterations, 6 subsets, energy window: 400–600 keV, coincidence mode: 1–5, ring difference: 81. The mice were positioned prone in a special mouse bed (heated up to 37 °C), with the head fixed to a mouth piece for the anaesthetic gas supply with isoflurane in 40% air and 60% oxygen. The PET data were collected by a continuous WB scan during the entire investigation. Following the 60 min PET scan a T1 weighted WB gradient echo sequence (TR/TE: 20/6.4 ms, NEX: 1, FA: 25, FOV: 64 × 64 mm, Matrix: 128 × 128, STh: 0.5 mm) was performed for AC and anatomical orientation. […]. The respective brain regions were identified using the mouse brain atlas template Ma-Benveniste-Mirrione-FDG. The activity data are expressed as mean SUV of the overall ROI.

T1 sequence (Q13547 whole entry): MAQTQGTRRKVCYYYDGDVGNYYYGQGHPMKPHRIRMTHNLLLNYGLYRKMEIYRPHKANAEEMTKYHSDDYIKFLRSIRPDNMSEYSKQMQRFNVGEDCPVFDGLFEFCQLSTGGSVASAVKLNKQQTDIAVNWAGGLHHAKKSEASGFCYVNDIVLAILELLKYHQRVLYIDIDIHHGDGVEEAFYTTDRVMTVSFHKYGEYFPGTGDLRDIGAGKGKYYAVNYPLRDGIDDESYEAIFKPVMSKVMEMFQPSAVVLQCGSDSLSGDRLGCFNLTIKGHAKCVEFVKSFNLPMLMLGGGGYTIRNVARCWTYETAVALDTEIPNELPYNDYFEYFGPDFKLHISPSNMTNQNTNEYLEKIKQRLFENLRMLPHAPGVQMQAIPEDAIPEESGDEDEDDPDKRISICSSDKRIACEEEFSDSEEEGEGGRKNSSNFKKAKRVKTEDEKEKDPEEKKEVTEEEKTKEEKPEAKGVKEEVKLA

With `CC([18F])C(=O)NCc1ccc(C(=O)Nc2cc(-c3ccsc3)ccc2N)cc1` (centres unmarked) [[^18F]BA3] the IC50 (human recombinant HDAC1) was 4.8 ± 0.6 nM, the “specificity ratio HDAC1 over HDAC6” value (human recombinant HDAC6) was > 2080 and the “brain peak standardized uptake value” ([1]; at 0.8 min, i.v.) was ~ 0.16 SUV. The brain uptake plateau ([1]; at 15 min, i.v.) was ~ 0.22 SUV and the “brain uptake after washout” value ([1]; at 60 min after i.v. administration) was ~ 0.16 SUV.
